{
  "source": "patent US7211572B2",
  "about": "(Japan Tobacco Inc., priority 2003, dated 2007)",
  "note": "Structures can show the parent of a compound that is named as a salt.",
  "data": [
    {"molecular_target": "T1, HIV integrase (Human immunodeficiency virus type 1 group M subtype B, UniProt P12497, F1332H)", "T1 construct": "HIV integrase full length gene; made in house; host or cells: Escherichia coli BL21(DE3), plasmid pET21a-INH", "assay": "Determination of enzyme (HIV integrase) inhibitory activity", "format": "biochemical", "details": "recombinant HIV integrase (F185H), strand transfer ELISA, absorbance at 450 nm", "source_text": "The following explains evaluation methods of the HIV integrase inhibitory activity of the compound of the present invention.\n(i) Construction of Recombinant Integrase Gene Expression System\nThe 185th phenylalanine of HIV integrase full length gene (J. Virol., 67, 425–437 (1993)) was substituted by histidine and inserted into the restriction enzyme NdeI and XhoI sites of plasmid pET21a(+) (Novagen), whereby an integrase expression vector pET21a-INH was constructed.\n(ii) Production and Purification of Integrase Protein\nEscherichia coli recombinant BL21(DE3) transformed with plasmid pET21a-INH obtained in (i) was shake cultured at 37° C. in a liquid medium containing ampicillin. When the culture reached the logarithmic growth phase, isopropyl-β-D-thiogalactopyranoside was added to promote expression of integrase gene. The culture was continued for 3 hr to promote accumulation of the integrase protein. The recombinant E. coli was collected in pellets by centrifugal separation and preserved at −80° C.\nThe E. coli was suspended in Lysis buffer (20 mM HEPES (pH 7.5), 5 mM DTT, 10 mM CHAPS, 10% glycerol) containing 1M sodium chloride and subjected to repeat pressurization and depressurization for rupture, and centrifugal separation at 4° C., 40,000×g, 60 min to recover a water-soluble fraction (supernatant). This was diluted 10-fold with Lysis buffer free of sodium chloride, mixed with SP-Sepharose (Pharmacia Corporation) and stirred at 4° C. for 30 min to allow adsorption of integrase protein to the resin. The resin was washed with Lysis buffer containing 100 mM sodium chloride and the integrase protein was eluted with Lysis buffer containing 1M sodium chloride.\nThe eluted integrase protein solution was applied to a Superdex 75 (Pharmacia Corporation) column for gel filtration. The protein was eluted with Lysis buffer containing 1M sodium chloride.\nThe obtained fractions of the integrase protein were collected and preserved at −80° C.\n(iii) Preparation of DNA Solution\nThe following DNA synthesized by Greiner was dissolved in TE buffer (10 mM Tris-hydrochloric acid (pH 8.0), 1 mM EDTA) and mixed with donor DNA, target DNA, and each complementary strand (+ and − strands) to 1 μM. The mixture was heated at 95° C. for 5 min, 80° C. for 10 min, 70° C. for 10 min, 60° C. for 10 min, 50° C. for 10 min and 40° C. for 10 min and preserved at 25° C. to give a double stranded DNA, which was used for the test.\nDonor DNA (− strand having biotin attached to the 5′ terminal)\n(iv) Determination of Enzyme (HIV Integrase) Inhibitory Activity\nThe donor DNA was diluted with TE buffer to 10 nM, of which 50 μl was added to each well of streptavidin-coated microtiter plate (Roche) and allowed to adsorb at 37° C. for 60 min. The DNA was washed with phosphate buffer (Dulbecco PBS, Sanko Junyaku Co., Ltd.) containing 0.1% Tween 20 and phosphate buffer. Then, a reaction mixture (70 μl) having the following composition, a test substance (10 μl) diluted with the reaction mixture and 100 μg/ml integrase protein (10 μl) were added to each well and reacted at 37° C. for 60 min.\nComposition of the reaction mixture: 30 mM MOPS (3-morpholinopropanesulfonic acid), 5 mM magnesium chloride, 3 mM DTT (dithiothreitol), 0.1 mg/ml BSA (bovine serum albumin), 5% glycerol, 10% DMSO (dimethyl sulfoxide), 0.01% Tween 20.\nThen, 50 nM target DNA (10 μl) was added, reacted at 37° C. for 10 min and washed with phosphate buffer containing 0.1% Tween 20 to stop the reaction.\nThen, 100 mU/ml peroxidase labeled anti-digoxigenin antibody solution (Roche, 100 μl) was added, and the mixture was reacted at 30° C. for 60 min, followed by washing with phosphate buffer containing 0.1% Tween 20.\nA peroxidase color solution (Bio Rad, 100 μl) was added and allowed to react at room temperature for 4 min. The color reaction was stopped by adding 1N sulfuric acid (100 μl). The absorbance at 450 nm was measured. […]", "units": {"IC50": "nM"}, "values": [
      {"smiles": "O=C1c2c(O)c(=O)ccn2CCN1Cc1ccc(Cl)c(Cl)c1", "note": "[Example 1, 2-(3,4-dichlorobenzyl)-9-hydroxy-3,4-dihydro-2H-pyrido[1,2-a]pyrazine-1,8-dione hydrochloride]", "IC50": "< 10"},
      {"smiles": "CC1Cn2ccc(=O)c(O)c2C(=O)N1Cc1ccc(Cl)c(Cl)c1", "note": "(stereo not shown) [Example 3, 2-(3,4-dichlorobenzyl)-9-hydroxy-3-methyl-3,4-dihydro-2H-pyrido[1,2-a]pyrazine-1,8-dione]", "IC50": "10 to 100"},
      {"smiles": "CC1(C)CN(Cc2ccc(Cl)c(Cl)c2)C(=O)c2c(O)c(=O)ccn21", "note": "[Example 4, 2-(3,4-dichlorobenzyl)-9-hydroxy-4,4-dimethyl-3,4-dihydro-2H-pyrido[1,2-a]pyrazine-1,8-dione]", "IC50": "10 to 100"},
      {"smiles": "O=C1c2c(O)c(=O)cc(CO)n2CCN1Cc1ccc(Cl)c(Cl)c1", "note": "[Example 5, 2-(3,4-dichlorobenzyl)-9-hydroxy-6-hydroxymethyl-3,4-dihydro-2H-pyrido[1,2-a]pyrazine-1,8-dione]", "IC50": "10 to 100"},
      {"smiles": "O=C(O)c1cc(=O)c(O)c2n1CCN(Cc1ccc(Cl)c(Cl)c1)C2=O", "note": "[Example 6, 2-(3,4-dichlorobenzyl)-9-hydroxy-1,8-dioxo-1,3,4,8-tetrahydro-2H-pyrido[1,2-a]pyrazine-6-carboxylic acid]", "IC50": "10 to 100"},
      {"smiles": "CC(C)(C)C(=O)c1cc(=O)c(O)c2n1CCN(Cc1ccc(Cl)c(Cl)c1)C2=O", "note": "[Example 7, 2-(3,4-dichlorobenzyl)-6-(2,2-dimethylpropionyl)-9-hydroxy-3,4-dihydro-2H-pyrido[1,2-a]pyrazine-1,8-dione]", "IC50": "< 10"},
      {"smiles": "O=c1ccn2ccn(Cc3ccc(Cl)c(Cl)c3)c(=O)c2c1O", "note": "[Example 8, 2-(3,4-dichlorobenzyl)-9-hydroxy-2H-pyrido[1,2-a]pyrazine-1,8-dione]", "IC50": "< 10"},
      {"smiles": "Cc1cn2ccc(=O)c(O)c2c(=O)n1Cc1ccc(Cl)c(Cl)c1", "note": "[Example 9, 2-(3,4-dichlorobenzyl)-9-hydroxy-3-methyl-2H-pyrido[1,2-a]pyrazine-1,8-dione]", "IC50": "10 to 100"},
      {"smiles": "CC(C)c1cn(Cc2cccc(Cl)c2)c(=O)c2c(O)c(=O)ccn12", "note": "[Example 10, 2-(3-chlorobenzyl)-9-hydroxy-4-isopropyl-2H-pyrido[1,2-a]pyrazine-1,8-dione hydrochloride]", "IC50": "10 to 100"},
      {"smiles": "O=c1ccn2ccn(CCCc3c(Cl)cccc3Cl)c(=O)c2c1O", "note": "[Example 11, 2-[3-(2,6-dichlorophenyl)propyl]-9-hydroxy-2H-pyrido[1,2-a]pyrazine-1,8-dione]", "IC50": "< 10"},
      {"smiles": "O=c1ncn2ccn(Cc3ccc(Cl)c(Cl)c3)c(=O)c2c1O", "note": "[Example 12, 2-(3,4-dichlorobenzyl)-9-hydroxy-2H-pyrazino[1,2-a]pyrimidine-1,8-dione hydrochloride]", "IC50": "10 to 100"},
      {"smiles": "CC1CN(Cc2ccc(Cl)c(Cl)c2)C(=O)c2c(O)c(=O)ccn21", "note": "(stereo not shown) [Example 13, 2-(3,4-dichlorobenzyl)-9-hydroxy-4-methyl-3,4-dihydro-2H-pyrido[1,2-a]pyrazine-1,8-dione]", "IC50": "10 to 100"},
      {"smiles": "O=C1c2c(O)c(=O)ccn2C(Cc2ccccc2)CN1Cc1ccc(Cl)c(Cl)c1", "note": "(stereo not shown) [Example 14, 4-benzyl-2-(3,4-dichlorobenzyl)-9-hydroxy-3,4-dihydro-2H-pyrido[1,2-a]pyrazine-1,8-dione]", "IC50": "10 to 100"},
      {"smiles": "O=C1c2c(O)c(=O)ccn2C(c2ccccc2)CN1Cc1ccc(Cl)c(Cl)c1", "note": "(stereo not shown) [Example 15, 2-(3,4-dichlorobenzyl)-9-hydroxy-4-phenyl-3,4-dihydro-2H-pyrido[1,2-a]pyrazine-1,8-dione]", "IC50": "10 to 100"},
      {"smiles": "CCCCC1CN(Cc2ccc(Cl)c(Cl)c2)C(=O)c2c(O)c(=O)ccn21", "note": "(stereo not shown) [Example 16, 4-butyl-2-(3,4-dichlorobenzyl)-9-hydroxy-3,4-dihydro-2H-pyrido[1,2-a]pyrazine-1,8-dione]", "IC50": "10 to 100"},
      {"smiles": "CC(C)C1CN(Cc2ccc(Cl)c(Cl)c2)C(=O)c2c(O)c(=O)ccn21", "note": "(stereo not shown) [Example 17, 2-(3,4-dichlorobenzyl)-9-hydroxy-4-isopropyl-3,4-dihydro-2H-pyrido[1,2-a]pyrazine-1,8-dione]", "IC50": "10 to 100"},
      {"smiles": "CC1(C)Cn2ccc(=O)c(O)c2C(=O)N1Cc1ccc(Cl)c(Cl)c1", "note": "[Example 18, 2-(3,4-dichlorobenzyl)-9-hydroxy-3,3-dimethyl-3,4-dihydro-2H-pyrido[1,2-a]pyrazine-1,8-dione]", "IC50": "10 to 100"},
      {"smiles": "O=C1c2c(O)c(=O)ccn2C2(CCCC2)CN1Cc1ccc(Cl)c(Cl)c1", "note": "[Example 19, 2-(3,4-dichlorobenzyl)-9-hydroxy-3,4-dihydro-2H-pyrido[1,2-a]pyrazine-4-spiro-1′-cyclopentane-1,8-dione]", "IC50": "10 to 100"},
      {"smiles": "O=C1c2c(O)c(=O)ccn2C2(CCCCC2)CN1Cc1ccc(Cl)c(Cl)c1", "note": "[Example 20, 2-(3,4-dichlorobenzyl)-9-hydroxy-3,4-dihydro-2H-pyrido[1,2-a]pyrazine-4-spiro-1′-cyclohexane-1,8-dione]", "IC50": "10 to 100"},
      {"smiles": "COC(=O)C1CN(Cc2ccc(Cl)c(Cl)c2)C(=O)c2c(O)c(=O)ccn21", "note": "(stereo not shown) [Example 21, methyl 2-(3,4-dichlorobenzyl)-9-hydroxy-1,8-dioxo-1,3,4,8-tetrahydro-2H-pyrido[1,2-a]pyrazine-4-carboxylate]", "IC50": "10 to 100"},
      {"smiles": "O=C(O)C1CN(Cc2ccc(Cl)c(Cl)c2)C(=O)c2c(O)c(=O)ccn21", "note": "(stereo not shown) [Example 22, 2-(3,4-dichlorobenzyl)-9-hydroxy-1,8-dioxo-1,3,4,8-tetrahydro-2H-pyrido[1,2-a]pyrazine-4-carboxylic acid]", "IC50": "10 to 100"},
      {"smiles": "COCc1cc(=O)c(O)c2n1CCN(Cc1ccc(Cl)c(Cl)c1)C2=O", "note": "[Example 23, 2-(3,4-dichlorobenzyl)-9-hydroxy-6-methoxymethyl-3,4-dihydro-2H-pyrido[1,2-a]pyrazine-1,8-dione]", "IC50": "10 to 100"},
      {"smiles": "CN(C)C(=O)c1cc(=O)c(O)c2n1CCN(Cc1ccc(Cl)c(Cl)c1)C2=O", "note": "[Example 24, N,N-dimethyl-2-(3,4-dichlorobenzyl)-9-hydroxy-1,8-dioxo-1,3,4,8-tetrahydro-2H-pyrido[1,2-a]pyrazine-6-carboxamide]", "IC50": "10 to 100"},
      {"smiles": "O=C1c2c(O)c(=O)ccn2CC(Cc2ccccc2)N1Cc1ccc(Cl)c(Cl)c1", "note": "(stereo not shown) [Example 25, 3-benzyl-2-(3,4-dichlorobenzyl)-9-hydroxy-3,4-dihydro-2H-pyrido[1,2-a]pyrazine-1,8-dione]", "IC50": "10 to 100"},
      {"smiles": "CCCCC1Cn2ccc(=O)c(O)c2C(=O)N1Cc1ccc(Cl)c(Cl)c1", "note": "(stereo not shown) [Example 26, 3-butyl-2-(3,4-dichlorobenzyl)-9-hydroxy-3,4-dihydro-2H-pyrido[1,2-a]pyrazine-1,8-dione]", "IC50": "10 to 100"},
      {"smiles": "CN(C)C(=O)C1CN(Cc2ccc(Cl)c(Cl)c2)C(=O)c2c(O)c(=O)ccn21", "note": "(stereo not shown) [Example 27, N,N-dimethyl-2-(3,4-dichlorobenzyl)-9-hydroxy-1,8-dioxo-1,3,4,8-tetrahydro-2H-pyrido[1,2-a]pyrazine-4-carboxamide]", "IC50": "100 to 1000"},
      {"smiles": "O=C1c2c(O)c(=O)ccn2C(CO)CN1Cc1ccc(Cl)c(Cl)c1", "note": "(stereo not shown) [Example 28, 2-(3,4-dichlorobenzyl)-9-hydroxy-4-hydroxymethyl-3,4-dihydro-2H-pyrido[1,2-a]pyrazine-1,8-dione]", "IC50": "10 to 100"},
      {"smiles": "COCC1CN(Cc2ccc(Cl)c(Cl)c2)C(=O)c2c(O)c(=O)ccn21", "note": "(stereo not shown) [Example 29, 2-(3,4-dichlorobenzyl)-9-hydroxy-4-methoxymethyl-3,4-dihydro-2H-pyrido[1,2-a]pyrazine-1,8-dione]", "IC50": "10 to 100"}
    ]}
  ]
}
